The source of these data is the METLIN SMRT retention time set (Domingo-Almenara et al. 2019).

A short description of this series: gradient 5% acetonitrile 3 min, to 50% in 2 min, to 85% in 15 min, held 3 min, 100 µL/min. Particulars: column: Zorbax Extend-C18 2.1 x 50 mm; eluents: water / acetonitrile, 0.1% formic acid. The procedure, abridged: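 The system's dead and dwell volumes were 40 μL and 900 μL, with a Zorbax Extend-C18 column (2.1 × 50 mm, 1.8 μm) run at 100 μL/min in water and acetonitrile containing 0.1% formic acid each. Pure standards were analyzed in mixtures of ~100 molecules by HPLC–quadrupole time-of-flight mass spectrometry in positive and negative ionization mode. Retention time was assigned from computationally picked, manually inspected adduct peaks.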
In turn, `CN1CCC(N2CCN(c3ncccc3-c3nnc(-c4ccc(Cl)cc4)o3)CC2)CC1` displayed an RP-LC retention time of 586 s.
For the molecule `Cc1nn(C)c2c(N3CCC(C(=O)N4CCN(CC(=O)N5CCOCC5)CC4)CC3)nccc12`, the RP-LC retention time worked out at 560 s.
With `CCSc1nnc(-c2nn(C)c3c2CN(C(=O)c2ccc(F)c(F)c2)CC3)n1C` the figure was 763 s; with `Cc1ccccc1Nc1c(-c2cccc(Br)c2)nc2c(C)cccn12`, 849 s.
Consider `CCOc1cccc2cc(C(=O)Nc3ccc4c(c3)C(=O)N(C)C4=O)oc12`, for which the RP-LC retention time was 906 s.
As for `CCc1cc(=O)n(CC(=O)Nc2cccc(F)c2)c(N)n1`, the figure is 613 s.
With `COC[C@@H]1CN(c2cnccn2)C[C@H]1C(=O)NCc1cc(C)nn1C` the figure was 563 s.
As for `CCC(=O)N(C1CCOCC1)C1CCN(Cc2ccc(C)cc2C)CC1`, the figure is 636 s.
`COCCC1CCN(C(=O)CN(C)C(=O)c2ccsc2)CC1` showed an RP-LC retention time of 655 s.
`Cc1cccc(S(=O)(=O)N2CCCC(Cn3c(C)nc4cccnc43)C2)c1` (centres undefined) showed an RP-LC retention time of 821 s.
For the molecule `O=C(NCC1(c2ccccc2)CCOCC1)C(=O)Nc1cc2c3c(c1)CCC(=O)N3CCC2`, the RP-LC retention time turned out to be 762 s.
As for `CCOc1cc(S(=O)(=O)Nc2cccc(C)n2)c(C)cc1C`, the figure is 779 s.
As for `Cc1nn(-c2ccc(-c3ccccc3)nn2)c(C)c1S(=O)(=O)Nc1ccc2c(c1)OCCO2`, the figure is 978 s; as for `Cc1nnc([C@@H]2CC(F)(F)CN2C(=O)c2ccc3c(c2)OCO3)o1`, 703 s.
As for `COc1ccccc1-c1ccc(N2CCC(C(=O)NN3CCOCC3)CC2)nn1`, the figure is 530 s.
Turning to `CCOc1ccc(-c2nc(C3CC(=O)N(c4ccc(F)c(Cl)c4)C3)no2)cc1` (centres undefined), the RP-LC retention time stood at 1170 s.
As for `CCOC(=O)COc1cc(-c2ccc(F)cc2)nc2ccc(NC(=O)COC)cc12`, the figure is 730 s; as for `CC(C)NC(=O)Cn1c(=O)cc(-c2nc(C3CC3)no2)c2ccccc21`, 806 s.
With `Nc1cc(C2CCN(S(=O)(=O)c3cccc(Cl)c3)CC2)no1` the figure was 792 s.
As for `COc1ccc(-c2ccnc3nc(CCc4ccccc4)nn23)cc1OC`, the figure is 879 s; as for `Cc1c(C(=O)NC2CC2)cnn1-c1ccc(-c2nc(C(C)C)no2)cn1`, 849 s.
In the case of `Cc1nc(C)c(C(=O)Nc2nc(-c3cccc(Cl)c3)c(C)s2)s1`, the RP-LC retention time came to 1070 s.
As for `COc1ccc(NC(=O)CSc2nccc3c2ccn3Cc2ccc(F)cc2)cc1OC`, the figure is 788 s; as for `O=C(c1ccc(OC(F)(F)F)cc1)N1C[C@@H]2C[C@H]1C[C@@H]2NS(=O)(=O)c1cccnc1`, 761 s.
As for `CCOC(=O)c1ccc(NC(=O)Cn2c(C)cc(=O)c3cc(Br)ccc32)cc1`, the figure is 623 s; as for `Cc1ccc2cc(CN3CCC4(CC3)CC(O)CCO4)c(=O)[nH]c2c1` (centres undefined), 562 s.
With `Fc1cc(F)cc(-c2nnc(Cc3nc(-c4ccccc4Cl)no3)o2)c1` the figure was 1050 s.
Regarding `O=S(=O)(c1ccc(Cl)c(-c2nnc(-c3ccccc3)o2)c1)N1CCCCC1`, the RP-LC retention time came to 1130 s.
As for `O=S(=O)(c1cccc(Cl)c1)N1CCc2nc(-c3ccc(F)cc3)ncc2C1`, the figure is 1180 s; as for `CCCCN1CCN(C(=O)CN2CCN(Cc3ccc(F)cc3Cl)C2=O)CC1`, 641 s; as for `Cc1nnc(-c2ccc3ccn(CC(=O)N4CCc5ccccc54)c3c2)o1`, 852 s.
With `O=C(Cn1cnc2cc3c(cc21)OCCO3)Nc1cccc(C(F)(F)F)c1` the figure was 697 s; with `Cc1c(N2C(=O)c3cccc4cccc(c34)C2=O)c(=O)n(-c2ccccc2)n1C`, 644 s.
With `COCCNc1c(-c2ccc(C)cc2)nc2sc(C(=O)N(C)C)c(C)n12` the figure was 698 s; with `CC1CCN(S(=O)(=O)c2ccc(-c3nnc(C(=O)NCCc4ccc(Cl)cc4)o3)cc2)CC1`, 1160 s; with `Cc1nc2c(c(SCC(=O)Nc3nc(-c4ccccc4)cs3)n1)CCC2`, 982 s.
`CC(C)(C)c1ccc(C(=O)NC2(c3nc(-c4ccccc4)no3)CCCCC2)cc1` came in with an RP-LC retention time of 1410 s.
With `O=C(CCn1nnc2cc(-c3noc(Cc4ccc(Br)cc4)n3)ccc21)N1CCOCC1` the figure was 860 s.
With `CCOC(=O)C1=C(CN2CC(C)CC(C)C2)NC(=O)NC1c1ccc(OC(C)C)cc1` (centres undefined) the figure was 708 s.
For `O=C(NC1CCN(c2ccc(F)cc2)C1=O)c1ccc(F)c(Cl)c1` (centres undefined), the RP-LC retention time was found to be 877 s.
Turning to `O=C1CC(c2noc(-c3ccccc3F)n2)CN1c1ccc(F)cc1` (centres undefined), the RP-LC retention time came to 916 s.
With `Cc1cc(C(=O)Nc2nnc(CCSc3ccccc3)o2)on1` the figure was 694 s; with `Cc1sc2cc(C(=O)NC3CCCCC3)[nH]c2c1CN1CCOCC1`, 671 s.
`Cc1ccc(Nc2c(-c3cc(Br)ccc3F)nc3ccc(C)cn23)cc1` displayed an RP-LC retention time of 812 s.
As for `Cn1c(=O)c2c(nc3n2CC(=O)N(CCc2ccccc2)C3)n(C)c1=O`, the figure is 657 s.
As for `COc1ccc(OC)c(NC(=O)C(=O)NCC2CCCO2)c1` (centres undefined), the figure is 807 s; as for `Cc1ccccc1CN1N=C(C(=O)N2CCCC2)S(=O)(=O)c2ccccc21`, 869 s; as for `O=C(O)c1ccc(S(=O)(=O)NCc2ccccn2)cc1`, 543 s.
As for `CN(C)CCNC(=O)c1ccc(CS(=O)c2ccc(F)cc2)o1` (centres undefined), the figure is 569 s; as for `COc1ccc(CNC(=O)CN2CCN(Cc3ccccc3C)C(=O)C2=O)cc1`, 715 s; as for `Cc1ccc2[nH]c(=O)c(CCC(=O)N(C)Cc3cn(C)nc3C)cc2c1`, 646 s.
Consider `CCOC(=O)c1c(NCc2ccc(C)cc2)c2ccc(Cl)cc2[nH]c1=O`, for which the RP-LC retention time amounted to 922 s.
As to `Cc1ccc(C)c(-c2cc(C(=O)N3CCN(C)CC3)[nH]n2)c1`, the RP-LC retention time was found to be 621 s.
As for `O=C(O)C1CCCN(c2cn[nH]c(=O)c2)C1` (centres undefined), the figure is 564 s; as for `COc1ccc2[nH]cc(CCN3CC(C(=O)Nc4ccc5c(c4)CCC5)CC3=O)c2c1` (centres undefined), 841 s; as for `Clc1ccccc1/C=C/c1ccnc2ccccc12`, 910 s.
As for `COCCN1C(=O)c2cc(-c3ccc(OC)cc3)nn2CC1(C)C(=O)NCc1ccccc1` (centres undefined), the figure is 834 s.
With `O=C(c1cocn1)N1CC(F)(F)C[C@H]1c1nnc(-c2ccccc2)o1` the figure was 761 s; with `CC(C)CCNC(=O)c1c2c(cn(-c3ccccc3)c1=O)C(=O)CC(C)(C)C2`, 1030 s.
